The values that follow come from patent US11020358B2, “Method for the anti-senescence of and/or rejuvenating stem cells” (GWO XI STEM CELL APPLIED TECHNOLOGY CO., LTD., priority 2014, dated 2021).

Format in all cases: cell-based, human
The test system of assay [1] is SIRT1 gene. As to the kind of experiment: Quantitative RT-PCR of SIRT1 gene in hBMMSCs. Here is the method: Three portions of equal volume of the above culture medium containing the sub-cultured hBMMSCs were provided. The first and second portions were handled by adding thereinto H2O2 at a final concentration of 100 μM, reacting for 2 hours to induce senescence of the hBMMSCs, replacing the culture medium with a fresh culture medium, adding thereinto TC at final concentrations of 0 and 6 μM respectively, and reacting for 6 hours to obtain “H2O2 group (i.e., treated with H2O2 for 2 hours, but not treated with TC)” and “H2O2+TC6 group (i.e., treated with H2O2 for 2 hours and then treated with 6 μM of TC for 6 hours) hBMMSCs. The third portion without any treatment was referred to as “untreated group” hBMMSCs. […]
Each of the cDNA of ADSCs of different groups from Experiment (3-1) was handled as follows. […] The mixture was then placed in a real-time quantitative PCR machine (ABI prism 7700 sequence detection system) to perform a reaction for quantifying the gene expression levels. […]
The steps as shown in Experiment (3-2) were repeated, but the cDNA was substituted with the cDNA of the BMMSCs or WJSCs from Experiment (3-1) to conduct quantitative RT-PCR.

Assay [2] has as its system telomerase. As to the kind of experiment: Telomerase activity assay (TRAP) in ADSCs. Here is the method:
It has been know that the activity of telomerase plays a key role in controlling cell senescence. The activity of telomerase in each of the “untreated group,” “H2O2 group” and “TC6 group” ADSCs from Example 1 (1) was analyzed by Telomeric Repeat Amplification Protocol (TRAP) as follows. The 3′-end primer of telomere (i.e., Telo TAGGG) was extended by PCR under the catalysis of telomerase to amplify the TTAGGG repeat sequence. Then, signals of the product were detected by enzyme-linked immunosorbent assay (ELISA). The results are shown in FIG. 7, wherein the activity of telomerase in HEK293 cells (without any treatment) was served as a positive control group.

Assay [3] has as its system ADSCs. As to the kind of experiment: SA-β-gal activity assay in ADSCs. Here is the method: (§1) Four portions of equal volume of the above culture medium containing the sub-cultured ADSCs were separately handled by adding thereinto H2O2 (purchased from Sigma-Aldrich) at a final concentration of 100 μM and reacting for 2 hours to induce senescence of the ADSCs, replacing the culture medium with a fresh culture medium, adding thereinto TC (trans-cinnamaldehyde, purchased from Sigma-Aldrich) at a final concentration of 0, 2, 4 or 6 μM and reacting for 6 hours, so as to obtain “H2O2 group (i.e., treated with H2O2 for 2 hours, but not treated with TC),” “H2O2+TC2 group (i.e., treated with H2O2 for 2 hours and then treated with 2 μM of TC for 6 hours),” “H2O2+TC4 group (i.e., treated with H2O2 for 2 hours and then treated with 4 μM of TC for 6 hours),” and “H2O2+TC6 group (i.e., treated with H2O2 for 2 hours and then treated with 6 μM of TC for 6 hours)” ADSCs.
Four portions of equal volume of the above culture medium containing the sub-cultured ADSCs were handled by adding thereinto TC at final concentrations of 0, 2, 4 and 6 μM respectively, and reacting for 6 hours to obtain “untreated group (i.e., without any treatment),” “TC2 group (i.e., treated only with 2 μM of TC),” “TC4 group (i.e., treated only with 4 μM of TC)” and “TC6 group (i.e., treated only with 6 μM of TC)” ADSCs.
It has been known that senescent cells in acidic environment (e.g., pH 6.0) show the activity of SA-β-gal. Therefore, the senescence level of cells can be reflected by measuring the expression level of SA-β-gal in the cells.
The ADSCs in each sample of the group obtained from Example 1 (1) were washed with PBS twice, fixed with 3% formaldehyde and washed with PBS once. […]
The staining solution was removed. […] The cells were observed and photographed under a microscope with 10-fold magnification, and the percentage of SA-β-gal activity-positive cells was calculated.

The test system of assay [4] is ADSCs. As to the kind of experiment: Flow cytometry of surface antigens of ADSCs. Conditions: compared to untreated group. Here is the method: as §1
Four portions of equal volume of the above culture medium containing the sub-cultured ADSCs were handled by adding thereinto TC at final concentrations of 0, 2, 4 and 6 μM respectively, and reacting for 6 hours to obtain “untreated group (i.e., without any treatment),” “TC2 group (i.e., treated only with 2 μM of TC),” “TC4 group (i.e., treated only with 4 μM of TC)” and “TC6 group (i.e., treated only with 6 μM of TC)” ADSCs. […]

Regarding `OO` [H2O2, reference compound], the “expression level of SIRT1 gene in hBMMSCs” value in assay [1] (H2O2 group compared to untreated group) is “significantly reduced”. For the same molecule, in assay [2] (H2O2 group ADSCs compared to untreated group), the activity of telomerase entry is on record as “significantly decreased”. Moreover, the “number of the SA-β-gal activity-positive cells” value in assay [3] (ADSCs, 100 μM H2O2 2 h, compared to untreated group) is reported as “significantly increased”. Besides, the “expression phenotypes of the surface antigens” value in assay [4] (100 μM H2O2 2 h (H2O2 group)) is on record as “not significantly changed”.
Consider `O=C/C=C/c1ccccc1` [TC, trans-cinnamaldehyde], for which, in assay [1] (H2O2+TC6 group compared to H2O2 group), the “expression level of SIRT1 gene in hBMMSCs” value is “significantly increased”. The activity of telomerase result in assay [2] (ADSCs, 6 μM TC (“TC6 group”), compared to H2O2 group) is recorded as “significantly increased”. Also, the “number of the SA-β-gal activity-positive cells” value in assay [3] (H2O2-senescent ADSCs, 2, 4 and 6 μM TC 6 h, compared to H2O2 group) was “significantly reduced”; in assay [3] (non-senescent ADSCs, 2, 4 and 6 μM TC 6 h, compared to untreated group), “significantly reduced along with the increment in the concentration of TC”. Besides, the “expression phenotypes of the surface antigens” value in assay [4] (100 μM H2O2 2 h then 6 μM TC 6 h (H2O2+TC6 group)) is “not significantly changed”.
